Earlier results as cited in patent US7879804B2, “Blood pressure lowering peptides in a single enzymatic step” (DSM IP Assets B.V., priority 2004, dated 2011).

How the values were obtained:
ACE = ACE (Homo sapiens, UniProt P12821); conditions: for ACE inhibiting activities: in vitro, as reported in the literature
[1] = tested on: spontaneously hypertensive rats; conditions: Nakamura et al. 1995

Chain of ACE (P12821 30-1306, species assumed): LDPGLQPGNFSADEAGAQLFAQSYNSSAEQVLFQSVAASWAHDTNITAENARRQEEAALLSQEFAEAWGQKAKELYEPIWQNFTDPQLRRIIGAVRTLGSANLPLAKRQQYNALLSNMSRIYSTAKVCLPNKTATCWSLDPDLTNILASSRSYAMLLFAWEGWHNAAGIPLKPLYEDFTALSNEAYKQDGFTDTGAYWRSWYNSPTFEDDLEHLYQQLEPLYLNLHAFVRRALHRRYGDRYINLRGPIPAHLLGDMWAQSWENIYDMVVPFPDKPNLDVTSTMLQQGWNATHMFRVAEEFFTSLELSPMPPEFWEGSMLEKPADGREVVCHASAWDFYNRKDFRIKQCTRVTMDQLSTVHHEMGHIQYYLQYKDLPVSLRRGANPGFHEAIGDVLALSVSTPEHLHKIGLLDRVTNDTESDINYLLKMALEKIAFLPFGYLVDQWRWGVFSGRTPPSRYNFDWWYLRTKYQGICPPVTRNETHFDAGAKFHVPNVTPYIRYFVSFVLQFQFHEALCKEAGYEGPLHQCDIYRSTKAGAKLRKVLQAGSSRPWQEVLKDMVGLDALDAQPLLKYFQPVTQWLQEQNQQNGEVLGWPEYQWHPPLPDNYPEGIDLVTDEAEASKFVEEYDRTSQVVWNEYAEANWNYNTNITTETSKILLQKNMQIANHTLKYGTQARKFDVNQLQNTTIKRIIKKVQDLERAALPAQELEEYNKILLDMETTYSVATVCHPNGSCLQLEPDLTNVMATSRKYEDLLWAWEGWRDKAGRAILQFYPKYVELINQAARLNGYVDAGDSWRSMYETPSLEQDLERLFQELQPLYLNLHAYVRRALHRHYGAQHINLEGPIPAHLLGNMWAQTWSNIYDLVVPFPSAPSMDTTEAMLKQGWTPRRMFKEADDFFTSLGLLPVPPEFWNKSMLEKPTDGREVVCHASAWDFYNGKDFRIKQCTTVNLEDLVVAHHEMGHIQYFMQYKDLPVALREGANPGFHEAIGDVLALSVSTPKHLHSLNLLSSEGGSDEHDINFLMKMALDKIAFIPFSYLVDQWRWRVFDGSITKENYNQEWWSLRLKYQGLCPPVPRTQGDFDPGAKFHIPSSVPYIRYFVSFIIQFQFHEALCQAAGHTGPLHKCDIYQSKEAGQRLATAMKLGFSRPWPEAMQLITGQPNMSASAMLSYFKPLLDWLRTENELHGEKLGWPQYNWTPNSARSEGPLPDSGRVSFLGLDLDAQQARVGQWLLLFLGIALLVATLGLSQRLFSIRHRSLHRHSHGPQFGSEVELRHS

In the case of Leu-Pro-Pro [LPP], the ACE inhibiting activities (ACE) is listed as “Strong”.
For Val-Pro-Pro [VPP], the IC50 (ACE; ACE inhibition, reported by EP 0 583 074) is given as 9 µM, the ACE inhibiting activities (ACE) is given as “Strong” and the antihypertensive effects [1] is given as “confirmed”.
In the case of Ile-Pro-Pro [IPP], the ACE inhibiting activities (ACE) is given as “Strong” and the antihypertensive effects [1] is given as “confirmed”.
